One may read the IC50 as the concentration at which inhibition is half-maximal.

Among the data in patent US20250129021A1, “SMALL MOLECULE PROTEIN SYNTHESIS MODULATORS” (Interdict Bio, Inc., priority 2023, published 2025) are IC50 values, retold here.

Holding throughout (format): biochemical
One experiment concerns MYC. The experiment is described as follows: In vitro transcription-translation (IVTT) assay, MYC reporter. The settings on record: IVTT assay, HeLa S3 lysate, MYC reporter, normalized sfGFP/mCherry ratio; half-log dilutions 30 μM-0.1 μM, 2 hrs at 30° C. The procedure, abridged:
(§1)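 Reporter: mCherry, P2A, then 3×FLAG-target peptide-sfGFP fusion, IRES-initiated; HeLa S3 lysate IVTT; cpd dilutions 30 μM−0.1 μM half-log in 100% DMSO (dilution-plate conc); DNA added last; 2 h, 30° C; PBS quench.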

Another experiment concerns MCL-1. Put plainly: In vitro transcription-translation (IVTT) assay, MCL-1 reporter. Particulars: IVTT assay, HeLa S3 lysate, sfGFP/mCherry ratio; read-out: MCL1 IC50. The procedure, abridged: as §1
The next experiment relates to CCNTB1. The experiment is described as follows: In vitro transcription-translation (IVTT) assay, CCNTB1 reporter. Particulars: HeLa S3 lysate, sfGFP/mCherry ratio. As to the method: In vitro transcription-translation assay setup: Each assay includes a master mix containing lysate and shared components, a 96-well plate containing compound titrations for testing, a 96-well DNA plate with reporter constructs to be tested, 96-well skirted PCR plates, and 96-well flat-bottom, black, fluorescent assay plates. Reaction materials setup: (A) Master mix—15 mL conical tube (3 mL of HeLa S3 Lysate described above; 0.6 mL of ThermoFisher Accessory Proteins (#88882); 1.2 ml of ThermoFisher Reaction Mix (#88882); 0.54 mL of nuclease-free Water); (B) 96-Well Master Mix+Compound Plate (Half-log dilutions (30 μM−0.1 μM) of 4 compounds of interest are prepared in 100% DMSO); 96-Well DNA Plate (Five DNA constructs are plated into single columns within the plate. Row 1 of the column contains nuclease free H2O, all other wells contain 110 ng/μL plasmid DNA). Reactions are started by mixing 155 μL of master mix and 3.5 μL of compound serial dilutions, then 9.1 μL of master mix+compound mixture is aliquoted across 5 96-well plates. Reactions begin with final addition of 2 μL of DNA for a 11.1 μL reaction volume in each well. The entire plate is sealed, and incubated for 2 hrs at 30° C. After 2 hrs, quench the assay using 45 μL of PBS, and transfer 50 μL to a flat-bottom black microplate Quantify the sfGFP and mCherry signals from each well on each plate, taking 3 reads of each plate, and perform data analysis below.
In vitro transcription-translation assay data analysis: Each plate is read three times in channels for both sfGFP and mCherry signals. The average signal across these 3 reads is then calculated for further analysis. Control wells containing no DNA reporter are subtracted from reporter wells in the same column to remove auto-fluorescence of the lysate. Then, the ratio of sfGFP/mCherry is calculated per well, and these ratios are averaged across the triplicate experiments on the same plate. Finally, the ratio of each titration concentration is normalized to the no drug control to create the normalized stalling metric. The error on this measurement is determined by propagating error through the averaging and normalization steps. Values are plotted and fit for IC50 determination for each test sequence and titration of compound.

For another experiment, the system named is CCND1. Put plainly: In vitro transcription-translation (IVTT) assay, CCND1 reporter. The settings on record: IVTT assay, HeLa S3 lysate, sfGFP/mCherry ratio. The procedure, abridged:
as §1

Where only a bound is given, the exact number is not on record here.

As for `O=C(NCCC1CCNCC1)O[C@@H]1[C@@H](O)CN[C@@H]1Cc1ccc(-c2ccc(C(F)(F)F)cc2)cc1` [V192052, (2R,3S,4S)-4-hydroxy-2-{[4′-(trifluoromethyl)-[1,1′-biphenyl]-4-yl]methyl}pyrrolidin-3-yl N-[2-(piperidin-4-yl)ethyl]carbamate], the IC50 in the experiment with MYC, in the experiment on MCL-1, in the experiment on CCNTB1 and with CCND1 was greater than 30 µM in each case.

Take `O=C(NCc1cccc(F)c1)O[C@@H]1[C@@H](O)CN[C@@H]1Cc1ccc(-c2ccc3ncsc3c2)cc1` [V192103, (2R,3S,4S)-2-{[4-(1,3-benzothiazol-6-yl)phenyl]methyl}-4-hydroxypyrrolidin-3-yl N-[(3-fluorophenyl)methyl]carbamate]: the half-inhibitory concentration (IC50) in the experiment with MYC was less than 10 µM; in the experiment with MCL-1, less than 10 µM; in the experiment on CCNTB1 it was less than 10 µM; with CCND1, 10 to 20 µM.

For `O=C(NCc1cccc(-n2ccnc2)c1)O[C@@H]1[C@@H](O)CN[C@@H]1Cc1ccc(-c2cnco2)cc1` [V192167, (2R,3S,4S)-4-hydroxy-2-{[4-(1,3-oxazol-5-yl)phenyl]methyl}pyrrolidin-3-yl N-{[3-(imidazol-1-yl)phenyl]methyl}carbamate], the IC50 in the experiment with MYC, with MCL-1, in the experiment with CCNTB1 and in the experiment on CCND1 was less than 10 µM throughout.

As to `O=C(NCc1ccc2c(c1)CCNC2)O[C@@H]1[C@@H](O)CN[C@@H]1Cc1ccc(-c2cncs2)cc1` [V192109, (2R,3S,4S)-4-hydroxy-2-(4-(thiazol-5-yl)benzyl)pyrrolidin-3-yl ((1,2,3,4-tetrahydroisoquinolin-6-yl)methyl)carbamate], the IC50 with MYC, in the experiment on MCL-1, with CCNTB1 and in the experiment with CCND1 was less than 10 µM throughout.

For the molecule `COc1ccc(C[C@H]2NC[C@H](O)[C@H]2OC(=O)NCc2ccnc(N3CCC3)n2)cc1` [V192073, (2R,3S,4S)-4-hydroxy-2-[(4-methoxyphenyl)methyl]pyrrolidin-3-yl N-{[2-(azetidin-1-yl)pyrimidin-4-yl]methyl}carbamate], the IC50 in the experiment with MYC, in the experiment on MCL-1, with CCNTB1 and with CCND1 was less than 10 µM each time.

With `COc1ccc(C[C@H]2NC[C@H](O)[C@H]2OC(=O)NCc2cc(F)c(O)c(F)c2)cc1` [V191939, (2R,3S,4S)-4-hydroxy-2-[(4-methoxyphenyl)methyl]pyrrolidin-3-yl N-[(3,5-difluoro-4-hydroxyphenyl)methyl]carbamate], the concentration for half-maximal inhibition (IC50) in the experiment with MYC was 10 to 20 µM; in the experiment with MCL-1, less than 10 µM; in the experiment with CCNTB1, less than 10 µM; in the experiment on CCND1, 10 to 20 µM.

Take `COc1ccc(C[C@H]2NC[C@H](O)[C@H]2OC(=O)NCC[C@H]2CCC3(CC3)N2)cc1` [V192043, (2R,3S,4S)-4-hydroxy-2-[(4-methoxyphenyl)methyl]pyrrolidin-3-yl N-{2-[(5R)-4-azaspiro[2.4]heptan-5-yl]ethyl}carbamate]: the IC50 with MYC, in the experiment with MCL-1, with CCNTB1 and with CCND1 was greater than 30 µM each time.

Take `O=C(NCC[C@H]1CCCN1)O[C@@H]1[C@@H](O)CN[C@@H]1Cc1ccc(-c2cnco2)cc1` [V192048, (2R,3S,4S)-4-hydroxy-2-{[4-(1,3-oxazol-5-yl)phenyl]methyl}pyrrolidin-3-yl N-{2-[(2R)-pyrrolidin-2-yl]ethyl}carbamate]: the IC50 with MYC, with MCL-1, in the experiment on CCNTB1 and with CCND1 was less than 10 µM throughout.

Turning to `O=C(NCC[C@H]1CCCN1)O[C@@H]1[C@@H](O)CN[C@@H]1Cc1ccc(-c2ccc3c(c2)CC(F)(F)C3)cc1` [V192040, (2R,3S,4S)-2-{[4-(2,2-difluoro-1,3-dihydroinden-5-yl)phenyl]methyl}-4-hydroxypyrrolidin-3-yl N-{2-[(2R)-pyrrolidin-2-yl]ethyl}carbamate], the half-maximal inhibitory concentration (IC50) with MYC was 10 to 20 µM; with MCL-1, 10 to 20 µM; in the experiment with CCNTB1 it was less than 10 µM; in the experiment with CCND1, 20 to 30 µM.

In the case of `O=C(NCc1ccc2c(c1)CCNC2)O[C@@H]1[C@@H](O)CN[C@@H]1Cc1ccc(-c2ccc(S(F)(F)(F)(F)F)cc2)cc1` [V192059, (2R,3S,4S)-4-hydroxy-2-{[4′-(pentafluoro-lambda6-sulfanyl)-[1,1′-biphenyl]-4-yl]methyl}pyrrolidin-3-yl N-(1,2,3,4-tetrahydroisoquinolin-6-ylmethyl)carbamate], the IC50 with MYC, in the experiment with MCL-1, in the experiment on CCNTB1 and in the experiment with CCND1 was greater than 30 µM each time.

`COc1ccc(C[C@H]2NC[C@H](O)[C@H]2OC(=O)NCC[C@H]2CCCN2C)cc1` [V192042, (2R,3S,4S)-4-hydroxy-2-[(4-methoxyphenyl)methyl]pyrrolidin-3-yl N-{2-[(2R)-1-methylpyrrolidin-2-yl]ethyl}carbamate]: the IC50 is greater than 30 µM in the experiment with MYC, greater than 30 µM in the experiment with MCL-1, 20 to 30 µM in the experiment with CCNTB1 and greater than 30 µM in the experiment with CCND1.

Regarding `COc1ccc(C[C@H]2NC[C@H](O)[C@H]2OC(=O)NCc2ccnc(N3CC(O)C3)c2)cc1` [V192067, (2R,3S,4S)-4-hydroxy-2-(4-methoxybenzyl)pyrrolidin-3-yl ((2-(3-hydroxyazetidin-1-yl)pyridin-4-yl)methyl)carbamate], the IC50 in the experiment on MYC was less than 10 µM; in the experiment on MCL-1, less than 10 µM; with CCNTB1 it was 10 to 20 µM; in the experiment on CCND1, less than 10 µM.

Consider `COc1ccc(C[C@H]2NC[C@H](O)[C@H]2OC(=O)NCC[C@]2(C)CCCN2)cc1` [V191921, (2R,3S,4S)-4-hydroxy-2-[(4-methoxyphenyl)methyl]pyrrolidin-3-yl N-{2-[(2S)-2-methylpyrrolidin-2-yl]ethyl}carbamate], for which the IC50 with MYC was less than 10 µM; in the experiment with MCL-1, less than 10 µM; in the experiment with CCNTB1 it was less than 10 µM; in the experiment with CCND1, 10 to 20 µM.

`O=C(NCc1cccc(F)c1)O[C@@H]1[C@@H](O)CN[C@@H]1Cc1ccc(-c2cnoc2)cc1` [V190543, (2R,3S,4S)-4-hydroxy-2-{[4-(1,2-oxazol-4-yl)phenyl]methyl}pyrrolidin-3-yl N-[(3-fluorophenyl)methyl]carbamate]: the IC50 in the experiment on MYC is less than 10 µM; in the experiment with MCL-1, greater than 30 µM; in the experiment on CCNTB1, 20 to 30 µM; with CCND1, greater than 30 µM.

As for `O=C(NCc1cccc(F)c1)O[C@@H]1[C@@H](O)CN[C@@H]1Cc1ccc(-c2ccc(Cl)s2)cc1` [V192156, (2R,3S,4S)-2-{[4-(5-chlorothiophen-2-yl)phenyl]methyl}-4-hydroxypyrrolidin-3-yl N-[(3-fluorophenyl)methyl]carbamate], the IC50 in the experiment with MYC, in the experiment with MCL-1, in the experiment on CCNTB1 and with CCND1 was greater than 30 µM throughout.

As to `O=C(NCc1ccc2c(c1)CCNC2)O[C@@H]1[C@@H](O)CN[C@@H]1Cc1ccc(-c2cnco2)cc1` [V192056, (2R,3S,4S)-4-hydroxy-2-{[4-(1,3-oxazol-5-yl)phenyl]methyl}pyrrolidin-3-yl N-(1,2,3,4-tetrahydroisoquinolin-6-ylmethyl)carbamate], the IC50 in the experiment on MYC, in the experiment with MCL-1, in the experiment with CCNTB1 and with CCND1 was less than 10 µM throughout.

For the molecule `O=C(NCC[C@@H]1CCCN1)O[C@@H]1[C@@H](O)CN[C@@H]1Cc1ccc(-c2cncs2)cc1` [V192113, (2R,3S,4S)-4-hydroxy-2-{[4-(1,3-thiazol-5-yl)phenyl]methyl}pyrrolidin-3-yl N-{2-[(2S)-pyrrolidin-2-yl]ethyl}carbamate], the IC50 in the experiment with MYC, in the experiment with MCL-1, in the experiment on CCNTB1 and in the experiment on CCND1 was less than 10 µM each time.

For `O=C(NCC1CC1)O[C@@H]1[C@@H](O)CN[C@@H]1Cc1ccc(-c2cnco2)cc1` [V192262, (2R,3S,4S)-4-hydroxy-2-{[4-(1,3-oxazol-5-yl)phenyl]methyl}pyrrolidin-3-yl N-(cyclopropylmethyl)carbamate], the half-inhibitory concentration (IC50) in the experiment on MYC, in the experiment on MCL-1, in the experiment with CCNTB1 and in the experiment on CCND1 was less than 10 µM throughout.
